Values quoted from earlier work in US20080160503A1, “RAPID ANALYSIS OF ORAL BIOAVAILABILITY” (priority 2006, published 2008).

Settings: background statement; for first-pass metabolism: oral administration, gut wall and liver; for bioavailability through the oral route: no data shown

| Structure (SMILES) | first-pass metabolism | bioavailability through the oral route |
| --- | --- | --- |
| C[C@]12CC[C@H]3[C@@H](CCC4=CC(=O)CC[C@@]43C)[C@@H]1CC[C@@H]2O [testosterone] | extensive | virtually zero |
| NC[C@H](O)c1ccc(O)c(O)c1 [norepinephrine] | – | virtually zero |
| CC(C)NCC(O)c1ccc(O)c(O)c1 (centres unmarked) [isoproterenol] | extensive | virtually zero |
